Laboratory results taken from ChEMBL document CHEMBL3638462, “Pyridine and pyrimidine derivatives as phosphodiesterase 10 inhibitors” (2014).
Several values for one entry are separate records, joined by “and”; a condition that tells them apart may be missing. Equal values may be shown once.

molecular target: cAMP and cAMP-inhibited cGMP 3',5'-cyclic phosphodiesterase 10A (Homo sapiens, UniProt Q9Y233); experiment: Enzyme Inhibition Assay: To check the inhibition profile, 5 μL of serial diluted compounds were incubated with 5 μL of diluted PDE10 enzyme (BPS Bioscience, San Diego, Calif.) or tissue homogenate in a 384-well polystyrene assay plate (Corning, Corning, N.Y.) for 30 min at room temperature. After incubation, 10 μL of diluted fluorescein labeled cAMP or cGMP substrate were added and incubated for 60 min at room temperature. The reaction was stopped by adding 60 μL of diluted binding reagents and plates were read on an Envision (Perkin Elmer, Waltham, Mass.) for time resolved fluorescence resonance energy transfer. The data were analyzed with GraphPad Prism (La Jolla, Calif.).
Sequence (Q9Y233 whole entry): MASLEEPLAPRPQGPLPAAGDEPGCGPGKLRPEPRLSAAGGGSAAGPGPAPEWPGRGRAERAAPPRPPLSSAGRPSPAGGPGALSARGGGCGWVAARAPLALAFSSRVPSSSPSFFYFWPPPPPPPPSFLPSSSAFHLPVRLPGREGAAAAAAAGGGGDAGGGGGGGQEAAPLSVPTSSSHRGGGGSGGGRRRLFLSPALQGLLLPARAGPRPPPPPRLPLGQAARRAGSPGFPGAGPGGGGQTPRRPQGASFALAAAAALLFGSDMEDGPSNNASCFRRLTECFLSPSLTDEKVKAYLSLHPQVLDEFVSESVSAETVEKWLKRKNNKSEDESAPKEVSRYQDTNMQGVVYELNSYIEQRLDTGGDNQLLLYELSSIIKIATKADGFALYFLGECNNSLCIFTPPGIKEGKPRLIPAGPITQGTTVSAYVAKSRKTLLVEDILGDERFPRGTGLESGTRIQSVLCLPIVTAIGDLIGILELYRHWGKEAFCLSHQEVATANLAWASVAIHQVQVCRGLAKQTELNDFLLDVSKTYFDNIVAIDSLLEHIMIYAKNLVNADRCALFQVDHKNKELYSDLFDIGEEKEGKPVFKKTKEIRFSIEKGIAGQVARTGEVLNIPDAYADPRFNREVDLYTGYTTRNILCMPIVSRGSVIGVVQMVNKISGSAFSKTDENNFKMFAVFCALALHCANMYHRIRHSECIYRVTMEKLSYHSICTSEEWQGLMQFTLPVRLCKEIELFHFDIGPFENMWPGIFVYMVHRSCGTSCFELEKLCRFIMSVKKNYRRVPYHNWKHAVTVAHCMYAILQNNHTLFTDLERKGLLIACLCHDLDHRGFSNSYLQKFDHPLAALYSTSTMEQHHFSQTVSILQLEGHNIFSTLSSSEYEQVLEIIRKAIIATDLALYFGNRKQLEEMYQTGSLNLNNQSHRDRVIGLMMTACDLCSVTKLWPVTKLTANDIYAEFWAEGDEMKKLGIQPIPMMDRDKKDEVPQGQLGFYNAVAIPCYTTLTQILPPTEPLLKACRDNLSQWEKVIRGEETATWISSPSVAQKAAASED

SMILES	IC50
OC(c1ccc(Oc2ncccc2C2=CCOCC2)cc1)c1nc2ccccc2s1 (stereo not given)	516 nM
O=C(c1ccc(Oc2ncccc2[C@H]2CC[C@](O)(C(F)(F)F)CC2)cc1)c1nc2ccccc2[nH]1	12.7 nM
COc1cccnc1-c1cccnc1Oc1ccc(Nc2nc3ccccc3s2)cc1	232 nM
COc1cccc(-c2cccnc2Oc2ccc(C(=O)c3nc4ccccc4[nH]3)cc2)n1	2.32 nM
O=C(c1ccc(Oc2ncccc2[C@H]2CC[C@]3(CCO3)CC2)cc1)c1nc2ccccc2[nH]1	0.641 nM
C[C@]1(O)CC[C@H](c2cccnc2Oc2ccc(C(=O)c3nc4ccccc4[nH]3)cc2)C1	0.662 nM
C[C@]1(O)CC[C@@H](c2cccnc2Oc2ccc(C(=O)c3nc4ccccc4[nH]3)cc2)C1	0.763 nM
COc1cccnc1-c1cccnc1Oc1ccc(C(=O)c2nc3ccccc3[nH]2)cc1	17.1 nM
O=C(c1ccc(Oc2ncccc2[C@@H]2CC[C@@H](CO)C2)cc1)c1nc2ccccc2[nH]1	0.315 nM
O=C(c1ccc(Oc2ncccc2[C@@H]2CC[C@H](CO)C2)cc1)c1nc2ccccc2[nH]1	0.312 nM
O=C(c1ccc(Oc2ncccc2[C@H]2CC[C@@H](CO)C2)cc1)c1nc2ccccc2[nH]1	0.212 nM
COc1cncc(-c2cccnc2Oc2ccc(Nc3nc4ccccc4s3)cc2)c1	4.08 nM
COc1ccc(-c2cccnc2Oc2ccc(C(=O)c3nc4ccccc4[nH]3)cc2)nc1	8.77 nM
O=C(c1ccc(Oc2ncccc2-c2ccnc(Cl)c2)cc1)c1nc2ccccc2[nH]1	1.63 nM
C[C@@]1(O)CC[C@@H](c2cccnc2Oc2ccc(Nc3nc4ccccc4s3)cc2)C1	10.7 nM
C[C@]1(O)CC[C@H](c2cccnc2Oc2ccc(Nc3nc4ccccc4s3)cc2)C1	2.31 nM
O[C@H]1CCC[C@H](c2cccnc2Oc2ccc(Nc3nc4ccccc4s3)cc2)C1	9.93 nM
O=C(c1ccc(Oc2ncccc2[C@@H]2CCC[C@@H](O)C2)cc1)c1nc2ccccc2[nH]1	0.145 nM and 0.585 nM

SMILES	IC50
COc1cnccc1-c1cccnc1Oc1ccc(C(=O)c2nc3ccccc3[nH]2)cc1	0.261 nM
O=C(c1ccc(Oc2ncccc2[C@H]2CCC[C@H](O)C2)cc1)c1nc2ccccc2[nH]1	1.71 nM
Cc1cc(-c2cccnc2Oc2ccc(C(=O)c3nc4ccccc4n3C)cc2)ccn1	6.17 nM
COc1ccc(Cn2c(Nc3ccc(Oc4ncccc4C4CCOCC4)cc3)nc3ccccc32)cc1	1.7 nM
COc1nc2ccccc2cc1-c1cccnc1Oc1ccc(C(=O)c2nc3ccccc3[nH]2)cc1	419 nM
c1ccc(-n2ncc3cc(Oc4ncccc4C4CCCCC4)ccc32)nc1	417 nM
O=C(c1ccc(Oc2ncccc2-c2cccnc2F)cc1)c1nc2ccccc2[nH]1	0.162 nM
COc1ccc(-c2cccnc2Oc2ccc(C(=O)c3nc4ccccc4[nH]3)cc2)c(OC)n1	0.694 nM
CSc1cncc(-c2cccnc2Oc2ccc(C(=O)c3nc4ccccc4[nH]3)cc2)c1	1.06 nM
COc1cc(-c2cccnc2Oc2ccc(Nc3nc4ccccc4s3)cc2)ccn1	11.9 nM
COc1cnccc1-c1cccnc1Oc1ccc(Nc2nc3ccccc3s2)cc1	0.747 nM
COc1ccncc1-c1cccnc1Oc1ccc(C(=O)c2nc3ccccc3[nH]2)cc1	0.0725 nM
COc1ccncc1-c1cccnc1Oc1ccc(Nc2nc3ccccc3s2)cc1	0.902 nM
COc1ccnc(-c2cccnc2Oc2ccc(C(=O)c3nc4ccccc4n3C)cc2)c1	1.79 nM
Cc1cnc(Oc2ccc(C(=O)c3nc4ccccc4[nH]3)cc2)c(-c2ccnc(C)c2)c1	1.38 nM
Cc1cnc(Oc2ccc(C(=O)c3nc4ccccc4n3C)cc2)c(-c2ccnc(C)c2)c1	1.14 nM
COc1ncc(-c2ccnc(F)c2)c(Oc2ccc(C(=O)c3nc4ccccc4[nH]3)cc2)n1	22.9 nM
O=C(c1ccc(Oc2ncccc2C2CCNCC2)cc1)c1nc2ccccc2[nH]1	2.07 nM

Results, then the compound that gave them:

IC50	SMILES
31.9 nM	CC(C)c1ccc(Cn2c(Nc3ccc(Oc4ncccc4C4CCOCC4)cc3)nc3ccccc32)cc1
1.34 nM	O=C(c1ccc(Oc2ncccc2C2CCOCC2)cc1)c1nc2ncccc2[nH]1
0.308 nM	O=C(c1ccc(Oc2ncccc2[C@H]2CC[C@@H](O)CC2)cc1)c1nc2ccccc2[nH]1
0.101 nM	O=C(c1ccc(Oc2ncccc2[C@H]2CC[C@H](O)CC2)cc1)c1nc2ccccc2[nH]1
0.0645 nM	CC(=O)N1CCCC[C@@H]1c1cccnc1Oc1ccc(C(=O)c2nc3ccccc3[nH]2)cc1
0.728 nM	O=C(c1ccc(Oc2ncccc2[C@H]2CC[C@@](O)(C(F)(F)F)C2)cc1)c1nc2ccccc2[nH]1
1.59 nM	O=C(c1ccc(Oc2ncccc2[C@@H]2CC[C@](O)(C(F)(F)F)C2)cc1)c1nc2ccccc2[nH]1
1.56 nM	CC(=O)N1CC=C(c2cncnc2Oc2ccc(C(=O)c3nc4ccccc4[nH]3)cc2)CC1
0.0505 nM	O=C(c1ccc(Oc2ncccc2[C@@H]2CCCOCC2)cc1)c1nc2ccccc2[nH]1
0.077 nM	O=C1CCCC(c2cccnc2Oc2ccc(C(=O)c3nc4ccccc4[nH]3)cc2)CC1 (stereo not given)
9.12 nM	Fc1ccc(Cn2c(Nc3ccc(Oc4ncccc4C4CCOCC4)cc3)nc3ccccc32)cc1
1.06 nM	CC(=O)N1CCC(c2cccnc2Oc2ccc(C(=O)c3nc4ccccc4n3C)cc2)CC1
10.3 nM	Cn1c(C(=O)c2ccc(Oc3ncccc3-c3ccnc(F)c3)cc2)nc2ccccc21
0.528 nM	CC(=O)N1CC[C@@H](c2cccnc2Oc2ccc(C(=O)c3nc4ccccc4[nH]3)cc2)C1
1.17 nM	O=C(c1ccc(Oc2ncccc2-c2cc[nH]c(=O)c2)cc1)c1nc2ccccc2[nH]1
0.631 nM	O=C(c1ccc(Oc2ncccc2C2CCS(=O)(=O)CC2)cc1)c1nc2ccccc2[nH]1
0.121 nM	COc1cnccc1-c1cccnc1Oc1ccc(C(=O)c2nc3ccccc3n2C)cc1
2.29 nM	O=C(c1ccc(Oc2ncccc2C2CCOC2)cc1)c1nc2ccccc2n1CCF (stereo not given)
4.11 nM	COc1ccnc(-c2cccnc2Oc2ccc(C(=O)c3nc4ccccc4[nH]3)cc2)c1
